According to patent publication US10028960B2, “Pyrimidine compounds as JAK kinase inhibitors” (THERAVANCE BIOPHARMA R&D IP, LLC, priority 2016, dated 2018):
Where two headings read alike, the source gives them in different places.

Tests used:
Tyk2 = Tyk2 (Homo sapiens (Human), UniProt P29597); assay: LanthaScreen JAK biochemical assay, Tyk2; settings: for Ki: read-out: Tyk 2 (pKi) (converted)
Protocol: (§1) A panel of four LanthaScreen JAK biochemical assays (JAK1, 2, 3 and Tyk2) were carried in a common kinase reaction buffer (50 mM HEPES, pH 7.5, 0.01% Brij-35, 10 mM MgCl2, and 1 mM EGTA). Recombinant GST-tagged JAK enzymes and a GFP-tagged STAT1 peptide substrate were obtained from Life Technologies.

JAK1 = JAK1 (Homo sapiens (Human), UniProt P23458); assay: LanthaScreen JAK biochemical assay, JAK1
Protocol: as §1

JAK2 = JAK2 (Homo sapiens (Human), UniProt O60674); assay: LanthaScreen JAK biochemical assay, JAK2; settings: for Ki: read-out: JAK 2 (pKi) (converted)
Protocol: as §1

JAK3 = JAK3 (Homo sapiens (Human), UniProt P52333); assay: LanthaScreen JAK biochemical assay, JAK3; settings: for Ki: read-out: JAK 3 (pKi) (converted)
Protocol: as §1

[1] = tested on: IL-13 induced STAT6 phosphorylation in HT-29 human colorectal adenocarcinoma cells; assay: Cellular JAK potency assay: inhibition of IL-13 induced STAT6 phosphorylation; assay type: cell-based; settings: IL-13 induced STAT6 phosphorylation, HT-29 cells; for IC50: Homo sapiens, read-out: HT-29 (pIC50) (converted)
Protocol: The potency of test compounds for inhibition of the JAK-dependent cytokine interleuken-13 (IL-13) was assessed by measuring IL-13 (IL-13, R&D Systems) induced STAT6 phosphorylation in HT-29 human colorectal adenocarcinoma cells (ATCC).
The anti-STAT6 antibody (Cell Signaling Technologies) was conjugated to AlphaScreen acceptor beads (Perkin Elmer), while the anti-pSTAT6 (pTyr641) antibody (Cell Signaling Technologies) was biotinylated using EZ-Link Sulfo-NHS-Biotin (Thermo Scientific).
HT-29 cells were grown at 37° C. in a 5% CO2 humidified incubator in McCoy's 5a Modified medium (ATCC) supplemented with 10% FBS (Hyclone), 100 U/mL penicillin, 100 μg/mL streptomycin (Life Technologies), and 2 mM GlutaMAX (Life Technologies). On day 1 of the assay, cells were seeded at a 7,500 cells/well density in white poly-D-lysine-coated 384-well plates (Corning) with 25 μL medium, and were allowed to adhere overnight in the incubator. On day 2 of the assay, the medium was removed and replaced with 12 μL of assay buffer (Hank's Balanced Salt Solution/HBSS, 25 mM HEPES, and 1 mg/ml bovine serum albumin/BSA) containing dose-responses of test compounds. Compounds were serially diluted in DMSO and then diluted another 1000-fold in media to bring the final DMSO concentration to 0.1%. Cells were incubated with test compounds at 37° C. for 1 h, and followed by the addition of 12 μL of pre-warmed IL-13 (12 ng/ml in assay buffer) for stimulation. After incubating at 37° C. for 30 min, the assay buffer (containing compound and IL-13) was removed, and 10 μL of cell lysis buffer (25 mM HEPES, 0.1% SDS, 1% NP-40, 5 mM MgCl2, 1.3 mM EDTA, 1 mM EGTA, and supplement with Complete Ultra mini protease inhibitors and PhosSTOP from Roche Diagnostics). The plates were shaken at ambient temperature for 30 min before the addition of detection reagents. A mixture of biotin-anti-pSTAT6 and anti-STAT6 conjugated acceptor beads was added first and incubated at ambient temperature for 2 h, followed by the addition of streptavidin conjugated donor beads (Perkin Elmer). After a minimum of 2 h incubation, the assay plates were read on the EnVision plate reader.
Results were expressed as the negative logarithm of the IC50 value, pIC50.

[2] = read-out: JAK 1 (pKi) (converted)

Chain of JAK3 (P52333 whole entry): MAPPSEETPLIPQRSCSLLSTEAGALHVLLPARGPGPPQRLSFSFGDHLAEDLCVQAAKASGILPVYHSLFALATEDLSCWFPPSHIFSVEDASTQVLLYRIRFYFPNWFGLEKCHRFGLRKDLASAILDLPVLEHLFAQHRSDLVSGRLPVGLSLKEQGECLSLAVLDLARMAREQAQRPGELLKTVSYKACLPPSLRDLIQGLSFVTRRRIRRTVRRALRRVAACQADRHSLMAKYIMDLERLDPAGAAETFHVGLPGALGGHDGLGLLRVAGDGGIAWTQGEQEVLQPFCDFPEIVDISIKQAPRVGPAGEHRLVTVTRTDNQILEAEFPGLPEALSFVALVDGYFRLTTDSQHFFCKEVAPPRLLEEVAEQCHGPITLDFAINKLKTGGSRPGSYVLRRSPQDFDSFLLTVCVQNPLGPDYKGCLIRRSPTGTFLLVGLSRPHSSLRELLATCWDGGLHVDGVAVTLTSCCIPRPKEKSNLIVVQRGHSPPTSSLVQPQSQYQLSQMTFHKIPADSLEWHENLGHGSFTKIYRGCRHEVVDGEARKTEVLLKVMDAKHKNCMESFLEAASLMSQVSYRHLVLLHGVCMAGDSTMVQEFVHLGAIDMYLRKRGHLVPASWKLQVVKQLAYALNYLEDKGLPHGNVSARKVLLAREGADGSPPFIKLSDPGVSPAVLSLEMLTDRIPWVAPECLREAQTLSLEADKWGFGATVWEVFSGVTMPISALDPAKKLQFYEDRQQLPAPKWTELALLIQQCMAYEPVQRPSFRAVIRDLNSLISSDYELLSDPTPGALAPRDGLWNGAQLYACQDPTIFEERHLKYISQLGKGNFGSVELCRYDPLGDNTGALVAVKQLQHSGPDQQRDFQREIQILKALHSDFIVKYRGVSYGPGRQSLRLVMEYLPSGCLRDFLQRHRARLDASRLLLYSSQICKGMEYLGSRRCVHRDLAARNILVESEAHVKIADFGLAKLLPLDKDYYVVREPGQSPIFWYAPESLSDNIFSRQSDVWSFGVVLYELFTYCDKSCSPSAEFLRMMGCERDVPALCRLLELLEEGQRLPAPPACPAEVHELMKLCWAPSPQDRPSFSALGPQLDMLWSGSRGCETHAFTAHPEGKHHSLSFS
Chain of JAK2 (O60674 whole entry): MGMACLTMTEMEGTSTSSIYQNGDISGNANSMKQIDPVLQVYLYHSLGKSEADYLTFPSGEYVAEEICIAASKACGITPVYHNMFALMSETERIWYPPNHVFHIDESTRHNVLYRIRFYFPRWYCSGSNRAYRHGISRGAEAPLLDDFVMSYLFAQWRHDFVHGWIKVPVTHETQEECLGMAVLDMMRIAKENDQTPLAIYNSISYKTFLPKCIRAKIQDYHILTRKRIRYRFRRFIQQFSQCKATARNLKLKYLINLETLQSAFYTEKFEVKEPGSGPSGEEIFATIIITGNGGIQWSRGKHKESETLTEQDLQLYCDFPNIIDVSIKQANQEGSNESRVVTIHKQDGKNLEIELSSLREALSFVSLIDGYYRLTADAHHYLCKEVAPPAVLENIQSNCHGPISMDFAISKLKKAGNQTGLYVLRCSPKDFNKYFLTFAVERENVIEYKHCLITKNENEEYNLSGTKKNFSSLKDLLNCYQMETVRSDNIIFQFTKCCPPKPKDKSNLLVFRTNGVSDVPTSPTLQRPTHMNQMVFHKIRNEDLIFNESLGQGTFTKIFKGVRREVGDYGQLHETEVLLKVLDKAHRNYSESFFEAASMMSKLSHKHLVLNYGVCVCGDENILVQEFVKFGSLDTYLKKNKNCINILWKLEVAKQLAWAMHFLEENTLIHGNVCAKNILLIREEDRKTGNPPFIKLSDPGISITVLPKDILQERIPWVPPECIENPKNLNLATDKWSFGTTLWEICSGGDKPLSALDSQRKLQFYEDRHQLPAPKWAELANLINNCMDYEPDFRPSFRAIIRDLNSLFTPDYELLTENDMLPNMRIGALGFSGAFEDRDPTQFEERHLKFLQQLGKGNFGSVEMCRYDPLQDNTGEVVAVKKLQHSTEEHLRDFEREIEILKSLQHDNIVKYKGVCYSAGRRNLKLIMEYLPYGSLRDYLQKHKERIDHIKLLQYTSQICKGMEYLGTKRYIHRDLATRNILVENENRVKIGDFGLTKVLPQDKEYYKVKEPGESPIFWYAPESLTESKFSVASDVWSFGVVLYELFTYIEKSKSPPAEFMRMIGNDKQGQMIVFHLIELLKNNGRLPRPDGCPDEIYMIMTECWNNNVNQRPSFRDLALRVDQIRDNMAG
Chain of Tyk2 (P29597 whole entry): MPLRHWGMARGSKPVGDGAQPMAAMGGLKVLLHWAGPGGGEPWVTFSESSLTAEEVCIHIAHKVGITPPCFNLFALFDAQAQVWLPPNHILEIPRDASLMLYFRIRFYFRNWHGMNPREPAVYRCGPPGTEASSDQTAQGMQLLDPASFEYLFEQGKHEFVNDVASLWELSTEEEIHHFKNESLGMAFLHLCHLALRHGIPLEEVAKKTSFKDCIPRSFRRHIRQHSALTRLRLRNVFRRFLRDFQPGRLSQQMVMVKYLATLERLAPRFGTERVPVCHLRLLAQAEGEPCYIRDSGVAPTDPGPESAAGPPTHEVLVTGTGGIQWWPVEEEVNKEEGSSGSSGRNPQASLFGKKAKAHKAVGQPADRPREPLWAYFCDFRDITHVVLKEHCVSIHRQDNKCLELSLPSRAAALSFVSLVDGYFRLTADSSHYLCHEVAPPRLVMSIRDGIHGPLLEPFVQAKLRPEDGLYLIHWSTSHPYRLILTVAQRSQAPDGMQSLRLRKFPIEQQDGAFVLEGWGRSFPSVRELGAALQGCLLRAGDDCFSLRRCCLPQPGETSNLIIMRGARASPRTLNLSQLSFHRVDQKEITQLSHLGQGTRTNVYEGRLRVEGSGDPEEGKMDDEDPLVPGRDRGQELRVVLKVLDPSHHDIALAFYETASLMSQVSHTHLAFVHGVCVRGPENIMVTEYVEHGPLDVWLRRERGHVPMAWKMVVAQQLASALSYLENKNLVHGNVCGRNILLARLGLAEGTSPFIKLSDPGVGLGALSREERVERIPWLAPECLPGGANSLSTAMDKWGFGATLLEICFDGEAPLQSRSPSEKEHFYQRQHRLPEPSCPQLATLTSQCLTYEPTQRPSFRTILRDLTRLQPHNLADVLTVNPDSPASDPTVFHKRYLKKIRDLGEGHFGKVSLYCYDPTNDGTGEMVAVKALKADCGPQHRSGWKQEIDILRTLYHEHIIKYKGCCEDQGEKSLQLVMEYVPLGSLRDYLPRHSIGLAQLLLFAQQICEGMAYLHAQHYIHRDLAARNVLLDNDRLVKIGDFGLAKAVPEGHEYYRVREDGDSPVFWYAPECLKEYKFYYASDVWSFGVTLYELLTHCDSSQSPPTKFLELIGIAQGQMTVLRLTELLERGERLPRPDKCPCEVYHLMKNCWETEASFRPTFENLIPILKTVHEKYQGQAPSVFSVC
Chain of JAK1 (P23458 whole entry): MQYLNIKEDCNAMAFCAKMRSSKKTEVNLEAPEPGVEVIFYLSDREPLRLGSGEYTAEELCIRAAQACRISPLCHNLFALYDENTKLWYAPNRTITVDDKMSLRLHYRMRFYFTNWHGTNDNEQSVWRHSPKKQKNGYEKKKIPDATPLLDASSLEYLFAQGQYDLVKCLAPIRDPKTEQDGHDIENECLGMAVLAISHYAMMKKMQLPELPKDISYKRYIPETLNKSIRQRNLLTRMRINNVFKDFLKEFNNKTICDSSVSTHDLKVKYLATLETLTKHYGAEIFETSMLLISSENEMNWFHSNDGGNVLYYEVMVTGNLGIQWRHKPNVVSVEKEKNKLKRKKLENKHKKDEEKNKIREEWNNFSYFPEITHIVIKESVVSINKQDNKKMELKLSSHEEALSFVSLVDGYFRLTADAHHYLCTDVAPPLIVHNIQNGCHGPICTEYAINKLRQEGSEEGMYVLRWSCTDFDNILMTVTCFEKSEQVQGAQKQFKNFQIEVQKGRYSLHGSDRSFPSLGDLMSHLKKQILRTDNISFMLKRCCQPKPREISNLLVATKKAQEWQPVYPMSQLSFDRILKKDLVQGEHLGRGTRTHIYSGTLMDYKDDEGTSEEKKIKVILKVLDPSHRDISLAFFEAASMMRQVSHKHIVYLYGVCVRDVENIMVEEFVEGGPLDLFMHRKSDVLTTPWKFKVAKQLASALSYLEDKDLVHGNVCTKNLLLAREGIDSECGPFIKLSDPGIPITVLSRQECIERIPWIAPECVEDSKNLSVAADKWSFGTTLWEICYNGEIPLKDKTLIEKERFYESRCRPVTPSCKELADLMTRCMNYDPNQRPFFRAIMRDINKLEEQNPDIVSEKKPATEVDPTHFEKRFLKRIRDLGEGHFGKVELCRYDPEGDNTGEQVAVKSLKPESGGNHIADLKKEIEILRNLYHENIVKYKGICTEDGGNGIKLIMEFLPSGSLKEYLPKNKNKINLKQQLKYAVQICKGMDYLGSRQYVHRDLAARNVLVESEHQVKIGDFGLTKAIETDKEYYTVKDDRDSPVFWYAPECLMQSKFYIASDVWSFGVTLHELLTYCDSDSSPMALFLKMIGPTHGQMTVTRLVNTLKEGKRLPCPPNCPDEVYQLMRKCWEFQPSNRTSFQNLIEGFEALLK

| Compound | Tyk 2 (pKi) (Tyk2) | JAK 1 (pKi) (JAK1) | JAK 2 (pKi) (JAK2) | JAK 3 (pKi) (JAK3) | HT-29 (pIC50) [1] | Ki (Tyk2) [nM] | Ki (JAK1) [nM] | Ki (JAK2) [nM] | Ki (JAK3) [nM] | IC50 [1] [nM] | Ki (JAK1; [2]) [nM] |
| --- | --- | --- | --- | --- | --- | --- | --- | --- | --- | --- | --- |
| COc1cc(Nc2cc(CO)[nH]n2)nc(N(C)[C@@H]2C[C@H]3CCC[C@@H](C2)N3S(=O)(=O)N2CCCC2)n1 [Example 1-13, (3-((6-methoxy-2-(methyl((1R,3s,5S)-9-(pyrrolidin-1-ylsulfonyl)-9-azabicyclo[3.3.1]nonan-3-yl)amino)pyrimidin-4-yl)amino)-1H-pyrazol-5-yl)methanol] | B (B represents a pKi value between 9 and 10 (Ki between 1 nM and 0.1 nM)) | A (A represents a pKi value≥10 (Ki≤0.1 nM)) | A (A represents a pKi value≥10 (Ki≤0.1 nM)) | B (B represents a pKi value between 9 and 10 (Ki between 1 nM and 0.1 nM)) | A (A represents a pIC50 value≥7.5 (IC50≤32 nM)) | – | – | – | – | – | – |
| COc1cc(Nc2cc(CO)[nH]n2)nc(N(C)[C@@H]2C[C@H]3CCC[C@@H](C2)N3S(=O)(=O)C2CC2)n1 [Example 1-14, (3-((2-(((1R,3s,5S)-9-(cyclopropylsulfonyl)-9-azabicyclo[3.3.1]nonan-3-yl)(methyl)amino)-6-methoxypyrimidin-4-yl)amino)-1H-pyrazol-5-yl)methanol] | B (B represents a pKi value between 9 and 10 (Ki between 1 nM and 0.1 nM)) | B (B represents a pKi value between 9 and 10 (Ki between 1 nM and 0.1 nM)) | A (A represents a pKi value≥10 (Ki≤0.1 nM)) | C (C represents a pKi value between 8 and 9 (Ki between 10 nM and 1 nM)) | A (A represents a pIC50 value≥7.5 (IC50≤32 nM)) | – | – | – | – | – | – |
| COc1cc(Nc2cc(CO)[nH]n2)nc(N(C)[C@@H]2C[C@H]3CCC[C@@H](C2)N3S(=O)(=O)c2cccnc2)n1 [Example 1-15, (3-((6-methoxy-2-(methyl((1R,3s,5S)-9-(pyridin-3-ylsulfonyl)-9-azabicyclo[3.3.1]nonan-3-yl)amino)pyrimidin-4-yl)amino)-1H-pyrazol-5-yl)methanol] | B (B represents a pKi value between 9 and 10 (Ki between 1 nM and 0.1 nM)) | B (B represents a pKi value between 9 and 10 (Ki between 1 nM and 0.1 nM)) | A (A represents a pKi value≥10 (Ki≤0.1 nM)) | C (C represents a pKi value between 8 and 9 (Ki between 10 nM and 1 nM)) | B (B represents a pIC50 value between 6.7 and 7.5 (IC50 between 200 nM and 32 nM)) | – | – | – | – | – | – |
| COc1cc(Nc2cc(CO)[nH]n2)nc(N(C)[C@@H]2C[C@H]3CCC[C@@H](C2)N3S(=O)(=O)c2ccccc2)n1 [Example 1-16, (3-((6-methoxy-2-(methyl((1R,3s,5S)-9-(phenylsulfonyl)-9-azabicyclo[3.3.1]nonan-3-yl)amino)pyrimidin-4-yl)amino)-1H-pyrazol-5-yl)methanol] | B (B represents a pKi value between 9 and 10 (Ki between 1 nM and 0.1 nM)) | B (B represents a pKi value between 9 and 10 (Ki between 1 nM and 0.1 nM)) | B (B represents a pKi value between 9 and 10 (Ki between 1 nM and 0.1 nM)) | C (C represents a pKi value between 8 and 9 (Ki between 10 nM and 1 nM)) | B (B represents a pIC50 value between 6.7 and 7.5 (IC50 between 200 nM and 32 nM)) | – | – | – | – | – | – |
| COc1cc(Nc2cc(CO)[nH]n2)nc(N(C)[C@@H]2C[C@H]3CCC[C@@H](C2)N3S(=O)(=O)N2CCC2)n1 [Example 1-17, (3-((2-(((1R,3s,5S)-9-(azetidin-1-ylsulfonyl)-9-azabicyclo[3.3.1]nonan-3-yl)(methyl)amino)-6-methoxypyrimidin-4-yl)amino)-1H-pyrazol-5-yl)methanol] | B (B represents a pKi value between 9 and 10 (Ki between 1 nM and 0.1 nM)) | B (B represents a pKi value between 9 and 10 (Ki between 1 nM and 0.1 nM)) | A (A represents a pKi value≥10 (Ki≤0.1 nM)) | C (C represents a pKi value between 8 and 9 (Ki between 10 nM and 1 nM)) | A (A represents a pIC50 value≥7.5 (IC50≤32 nM)) | – | – | – | – | – | – |
| COc1cc(Nc2cc(CO)[nH]n2)nc(N(C)[C@@H]2C[C@H]3CCC[C@@H](C2)N3CCC#N)n1 [Example 2-5, 3-((1R,3s,5S)-3-((4-((5-(hydroxymethyl)-1H-pyrazol-3-yl)amino)-6-methoxypyrimidin-2-yl)(methyl)amino)-9-azabicyclo[3.3.1]nonan-9-yl)propanenitrile] | C (C represents a pKi value between 8 and 9 (Ki between 10 nM and 1 nM)) | B (B represents a pKi value between 9 and 10 (Ki between 1 nM and 0.1 nM)) | B (B represents a pKi value between 9 and 10 (Ki between 1 nM and 0.1 nM)) | D (D represents a pKi value between 7.5 and 8 (Ki between 31.6 nM and 10 nM)) | – | – | – | – | – | – | – |
| COc1cc(Nc2cc(CO)[nH]n2)nc(N(C)[C@@H]2C[C@H]3CCC[C@@H](C2)N3CC2(C#N)CC2)n1 [Example 2-6, 1-(((1R,3s,5S)-3-((4-((5-(hydroxymethyl)-1H-pyrazol-3-yl)amino)-6-methoxypyrimidin-2-yl)(methyl)amino)-9-azabicyclo[3.3.1]nonan-9-yl)methyl)cyclopropane-1-carbonitrile] | B (B represents a pKi value between 9 and 10 (Ki between 1 nM and 0.1 nM)) | B (B represents a pKi value between 9 and 10 (Ki between 1 nM and 0.1 nM)) | B (B represents a pKi value between 9 and 10 (Ki between 1 nM and 0.1 nM)) | C (C represents a pKi value between 8 and 9 (Ki between 10 nM and 1 nM)) | – | – | – | – | – | – | – |
| COc1cc(Nc2cc(CO)[nH]n2)nc(N(C)[C@@H]2C[C@H]3CC[C@@H](C2)N3CCC#N)n1 [Example 5, 3-((1R,3s,5S)-3-((4-((5-(hydroxymethyl)-1H-pyrazol-3-yl)amino)-6-methoxypyrimidin-2-yl)(methyl)amino)-8-azabicyclo[3.2.1]octan-8-yl)-propanenitrile] | – | – | – | – | – | 1 to 10 | 0.1 to 1 | 0.1 to 1 | 10 to 31.6 | 200 to 1000 | – |
| COc1cc(Nc2cc(CO)[nH]n2)nc(N(C)[C@@H]2C[C@H]3CCC[C@@H](C2)N3Cc2cncc(C#N)c2)n1 [Example 7, 5-(((1R,3s,5S)-3-((4-((5-(hydroxymethyl)-1H-pyrazol-3-yl)amino)-6-methoxypyrimidin-2-yl)(methyl)amino)-9-azabicyclo[3.3.1]nonan-9-yl)methyl)nicotinonitrile] | – | A (A represents a pKi value≥10 (Ki≤0.1 nM)) | A (A represents a pKi value≥10 (Ki≤0.1 nM)) | – | – | 0.1 to 1 | – | – | 0.1 to 1 | 31.6 to 200 | – |
| COc1cc(Nc2cc(CO)[nH]n2)nc(N(C)[C@@H]2C[C@H]3CCC[C@@H](C2)N3C(=O)OCC(C)C)n1 [Example 8, Isobutyl (1R,3s,5S)-3-((4-((5-(hydroxymethyl)-1H-pyrazol-3-yl)amino)-6-methoxypyrimidin-2-yl)(methyl)amino)-9-azabicyclo[3.3.1]nonane-9-carboxylate] | – | – | – | – | – | 0.1 to 1 | – | 0.1 to 1 | 1 to 10 | 31.6 to 200 | 0.1 to 1 |
| COc1cc(Nc2cc(CO)[nH]n2)nc(N(C)[C@@H]2C[C@H]3CCC[C@@H](C2)N3C(=O)C(F)F)n1 [Example 9, 2,2-difluoro-1-((1R,3s,5S)-3-((4-((5-(hydroxymethyl)-1H-pyrazol-3-yl)amino)-6-methoxypyrimidin-2-yl)(methyl)amino)-9-azabicyclo[3.3.1]nonan-9-yl)ethan-1-one] | – | – | – | – | – | 0.1 to 1 | – | 0.1 to 1 | 10 to 31.6 | – | 0.1 to 1 |
